Data as given in ChEMBL document CHEMBL4257535, “Design, synthesis and biological evaluation of AKT inhibitors bearing a piperidin-4-yl appendant” (Medchemcomm, 2018).
Calls of active or inactive are those of the source. No cut-off for these calls is given here.

Legend:
PC-3 [1] = assay: Induction of apoptosis in human PC3 cells assessed as early apoptotic cells at 1 uM after 48 hrs by Annexin V-FITC/propidium iodide staining based flow cytometry (reference value: 1.05%); type: functional
[2] = target: T1, RAC-alpha serine/threonine-protein kinase (Homo sapiens, UniProt P31749); assay: Inhibition of AKT1 (unknown origin) at 1 uM using biotin-labelled STK as substrate measured after 45 mins by HTRF method relative to control
T1 sequence (P31749 whole entry): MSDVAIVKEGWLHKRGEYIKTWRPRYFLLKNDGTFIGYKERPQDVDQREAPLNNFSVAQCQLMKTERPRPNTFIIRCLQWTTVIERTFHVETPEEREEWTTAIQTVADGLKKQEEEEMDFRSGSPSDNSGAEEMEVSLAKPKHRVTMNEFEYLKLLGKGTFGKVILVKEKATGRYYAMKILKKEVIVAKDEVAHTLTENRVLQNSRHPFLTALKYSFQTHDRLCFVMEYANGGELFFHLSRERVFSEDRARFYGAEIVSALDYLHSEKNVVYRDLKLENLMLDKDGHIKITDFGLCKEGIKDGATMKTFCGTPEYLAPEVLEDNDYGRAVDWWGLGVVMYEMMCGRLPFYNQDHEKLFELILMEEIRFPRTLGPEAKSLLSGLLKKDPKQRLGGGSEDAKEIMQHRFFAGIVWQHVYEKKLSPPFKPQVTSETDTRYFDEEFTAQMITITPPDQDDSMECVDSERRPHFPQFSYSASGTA

[3] = target: Glycogen synthase kinase-3 beta (Homo sapiens) (UniProt P49841); assay: Inhibition of GSK3beta (unknown origin) at 1 uM after 40 mins by scintillation counting method relative to control
[4] = target: T2, Aurora kinase A (Homo sapiens) (UniProt O14965); assay: Inhibition of Aurora A (unknown origin) at 1 uM after 40 mins by scintillation counting method relative to control
T2 sequence (whole entry): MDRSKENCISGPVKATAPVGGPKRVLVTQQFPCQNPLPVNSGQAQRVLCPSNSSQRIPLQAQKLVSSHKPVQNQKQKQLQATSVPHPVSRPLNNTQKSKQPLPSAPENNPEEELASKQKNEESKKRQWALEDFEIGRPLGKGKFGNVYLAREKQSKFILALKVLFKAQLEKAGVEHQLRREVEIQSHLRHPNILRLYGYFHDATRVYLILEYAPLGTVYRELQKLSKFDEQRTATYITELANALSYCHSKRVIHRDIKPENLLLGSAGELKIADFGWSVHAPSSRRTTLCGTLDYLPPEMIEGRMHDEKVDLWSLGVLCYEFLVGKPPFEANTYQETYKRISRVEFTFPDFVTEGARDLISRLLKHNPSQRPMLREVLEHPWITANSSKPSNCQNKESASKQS

PC-3 [5] = assay: Induction of apoptosis in human PC3 cells assessed as live cells at 5 uM after 48 hrs by Annexin V-FITC/propidium iodide staining based flow cytometry (reference value: 97.19%); type: functional
[6] = target: Tyrosine-protein kinase ABL1 (Homo sapiens) (UniProt P00519); assay: Inhibition of ABL (unknown origin) at 1 uM after 40 mins by scintillation counting method relative to control
Chain of Tyrosine-protein kinase ABL1 (Homo sapiens) (P00519 whole entry): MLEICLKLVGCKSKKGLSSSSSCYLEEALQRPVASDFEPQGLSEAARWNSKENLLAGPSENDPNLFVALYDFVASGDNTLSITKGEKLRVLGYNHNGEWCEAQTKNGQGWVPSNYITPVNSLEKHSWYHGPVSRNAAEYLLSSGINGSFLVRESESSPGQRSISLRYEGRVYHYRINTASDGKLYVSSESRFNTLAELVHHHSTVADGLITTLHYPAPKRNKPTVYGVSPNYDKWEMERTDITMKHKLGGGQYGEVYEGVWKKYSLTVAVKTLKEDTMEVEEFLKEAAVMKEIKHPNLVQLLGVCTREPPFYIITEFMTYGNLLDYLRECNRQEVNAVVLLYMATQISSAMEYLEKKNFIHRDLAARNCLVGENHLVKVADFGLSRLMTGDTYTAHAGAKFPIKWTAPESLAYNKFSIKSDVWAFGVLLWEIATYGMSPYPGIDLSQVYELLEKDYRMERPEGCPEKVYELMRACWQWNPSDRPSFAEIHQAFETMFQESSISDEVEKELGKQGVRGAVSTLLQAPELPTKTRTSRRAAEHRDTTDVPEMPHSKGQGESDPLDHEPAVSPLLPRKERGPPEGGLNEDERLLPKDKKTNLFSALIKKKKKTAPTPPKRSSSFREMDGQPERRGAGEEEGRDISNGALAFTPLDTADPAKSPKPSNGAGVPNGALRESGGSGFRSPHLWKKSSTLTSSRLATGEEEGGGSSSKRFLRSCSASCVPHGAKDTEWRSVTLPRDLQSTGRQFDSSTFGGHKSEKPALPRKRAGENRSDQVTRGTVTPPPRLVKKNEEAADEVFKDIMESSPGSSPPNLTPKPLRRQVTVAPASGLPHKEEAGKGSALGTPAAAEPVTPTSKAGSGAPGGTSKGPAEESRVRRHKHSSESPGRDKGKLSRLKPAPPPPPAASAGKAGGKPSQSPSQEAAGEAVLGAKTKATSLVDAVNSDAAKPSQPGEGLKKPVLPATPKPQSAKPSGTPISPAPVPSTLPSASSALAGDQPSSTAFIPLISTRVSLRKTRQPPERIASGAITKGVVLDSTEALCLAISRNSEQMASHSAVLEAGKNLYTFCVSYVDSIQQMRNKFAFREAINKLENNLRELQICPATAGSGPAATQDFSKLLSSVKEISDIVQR

[7] = target: Tyrosine-protein kinase JAK1 (Homo sapiens) (UniProt P23458); assay: Inhibition of JAK1 (unknown origin) at 1 uM after 40 mins by scintillation counting method relative to control
Chain of Tyrosine-protein kinase JAK1 (Homo sapiens) (P23458 whole entry): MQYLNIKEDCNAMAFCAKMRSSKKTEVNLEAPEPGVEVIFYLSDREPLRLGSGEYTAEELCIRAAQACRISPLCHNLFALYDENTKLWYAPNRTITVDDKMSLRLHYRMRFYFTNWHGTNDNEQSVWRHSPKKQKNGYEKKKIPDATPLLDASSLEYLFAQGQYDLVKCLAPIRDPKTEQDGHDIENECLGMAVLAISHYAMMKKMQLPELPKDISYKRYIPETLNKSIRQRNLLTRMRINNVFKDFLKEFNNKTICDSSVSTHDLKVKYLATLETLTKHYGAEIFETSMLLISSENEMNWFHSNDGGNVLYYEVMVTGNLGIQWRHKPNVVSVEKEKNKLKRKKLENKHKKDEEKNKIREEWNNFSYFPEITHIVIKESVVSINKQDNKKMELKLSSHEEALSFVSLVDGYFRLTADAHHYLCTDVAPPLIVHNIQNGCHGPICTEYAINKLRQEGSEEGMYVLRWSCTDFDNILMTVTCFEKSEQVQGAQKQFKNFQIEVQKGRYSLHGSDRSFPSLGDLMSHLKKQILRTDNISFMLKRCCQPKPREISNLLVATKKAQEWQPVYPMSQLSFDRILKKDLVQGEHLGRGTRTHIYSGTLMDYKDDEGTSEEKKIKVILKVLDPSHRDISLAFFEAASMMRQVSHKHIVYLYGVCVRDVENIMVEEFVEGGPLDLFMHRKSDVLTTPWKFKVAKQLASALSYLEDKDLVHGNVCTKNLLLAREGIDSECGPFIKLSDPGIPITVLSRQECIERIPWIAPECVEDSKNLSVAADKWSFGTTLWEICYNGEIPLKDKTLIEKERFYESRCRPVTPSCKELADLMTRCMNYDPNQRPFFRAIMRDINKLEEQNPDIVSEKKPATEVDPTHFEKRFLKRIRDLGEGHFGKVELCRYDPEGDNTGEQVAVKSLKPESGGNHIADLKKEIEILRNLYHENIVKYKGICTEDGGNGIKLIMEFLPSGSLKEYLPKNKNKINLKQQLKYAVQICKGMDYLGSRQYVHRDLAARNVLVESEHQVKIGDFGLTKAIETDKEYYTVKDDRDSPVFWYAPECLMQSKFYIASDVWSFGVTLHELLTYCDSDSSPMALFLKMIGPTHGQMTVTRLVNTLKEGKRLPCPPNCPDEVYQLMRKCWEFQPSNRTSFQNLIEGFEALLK

[8] = target: T1, RAC-alpha serine/threonine-protein kinase; assay: Inhibition of AKT1 (unknown origin) at 0.1 uM using biotin-labelled STK as substrate measured after 45 mins by HTRF method relative to control
PC-3 [9] = assay: Induction of apoptosis in human PC3 cells assessed as early apoptotic cells at 10 uM after 48 hrs by Annexin V-FITC/propidium iodide staining based flow cytometry (reference value: 1.05%); type: functional
PC-3 [10] = assay: Induction of apoptosis in human PC3 cells assessed as late apoptotic cells at 10 uM after 48 hrs by Annexin V-FITC/propidium iodide staining based flow cytometry (reference value: 0.27%); type: functional
in vitro [11] = assay: in vitro; design: dose or concentration left out as unconfirmed; details: human, liver microsomes
Description: Half life in human liver microsomes at 10 mM preincubated for 10 mins followed by NADPH addition by LC-MS analysis

in vitro [12] = assay: in vitro; design: dose or concentration left out as unconfirmed; details: human, liver microsomes; remark: listed apart in the source
Description: Intrinsic clearance in human liver microsomes at 10 mM preincubated for 10 mins followed by NADPH addition and measured after 5 to 60 mins by LC-MS analysis

[13] = target: Rho-associated protein kinase 1 (Homo sapiens) (UniProt Q13464); assay: Inhibition of ROCK1 (unknown origin) at 1 uM after 40 mins by scintillation counting method relative to control
PC-3 [14] = assay: Induction of apoptosis in human PC3 cells assessed as live cells at 10 uM after 48 hrs by Annexin V-FITC/propidium iodide staining based flow cytometry (reference value: 97.19%); type: functional
[15] = target: RAC-beta serine/threonine-protein kinase (Homo sapiens) (UniProt P31751); assay: Inhibition of AKT2 (unknown origin) at 10 nM after 40 mins by scintillation counting method relative to control
Chain of RAC-beta serine/threonine-protein kinase (Homo sapiens) (P31751 whole entry): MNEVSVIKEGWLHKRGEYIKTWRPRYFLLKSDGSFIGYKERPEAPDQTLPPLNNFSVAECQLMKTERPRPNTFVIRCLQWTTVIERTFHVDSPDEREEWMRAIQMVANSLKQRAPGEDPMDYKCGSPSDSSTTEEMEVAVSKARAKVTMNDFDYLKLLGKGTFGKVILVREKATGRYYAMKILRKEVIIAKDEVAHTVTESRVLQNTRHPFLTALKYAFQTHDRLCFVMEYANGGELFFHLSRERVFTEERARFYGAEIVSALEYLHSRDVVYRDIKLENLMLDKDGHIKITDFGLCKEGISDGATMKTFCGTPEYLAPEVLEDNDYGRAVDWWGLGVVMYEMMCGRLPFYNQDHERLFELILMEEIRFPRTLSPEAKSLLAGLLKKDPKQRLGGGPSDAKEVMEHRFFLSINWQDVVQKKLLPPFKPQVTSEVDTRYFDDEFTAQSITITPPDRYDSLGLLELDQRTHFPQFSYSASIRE

PC-3 [16] = assay: Induction of apoptosis in human PC3 cells assessed as early apoptotic cells at 5 uM after 48 hrs by Annexin V-FITC/propidium iodide staining based flow cytometry (reference value: 1.05%); type: functional
[17] = target: Cyclin-dependent kinase 1 (Homo sapiens) (UniProt P06493); assay: Inhibition of CDK1 (unknown origin) at 1 uM after 40 mins by scintillation counting method relative to control
Chain of Cyclin-dependent kinase 1 (Homo sapiens) (P06493 whole entry, looked up): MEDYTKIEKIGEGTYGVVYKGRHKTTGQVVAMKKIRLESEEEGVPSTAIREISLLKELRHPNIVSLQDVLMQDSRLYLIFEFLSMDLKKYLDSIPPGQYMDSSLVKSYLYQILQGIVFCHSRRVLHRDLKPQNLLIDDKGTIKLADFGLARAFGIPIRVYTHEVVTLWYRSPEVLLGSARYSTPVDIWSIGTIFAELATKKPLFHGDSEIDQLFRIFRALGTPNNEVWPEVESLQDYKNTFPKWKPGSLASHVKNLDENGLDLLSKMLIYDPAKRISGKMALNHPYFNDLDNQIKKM

Homo sapiens = organism: Homo sapiens; assay: Inhibition of PKA (unknown origin) at 1 uM after 40 mins by scintillation counting method relative to control
PC-3 [18] = assay: Induction of apoptosis in human PC3 cells assessed as late apoptotic cells at 5 uM after 48 hrs by Annexin V-FITC/propidium iodide staining based flow cytometry (reference value: 0.27%); type: functional
[19] = target: Protein kinase C alpha type (Homo sapiens) (UniProt P17252); assay: Inhibition of PKCalpha (unknown origin) at 1 uM after 40 mins by scintillation counting method relative to control
PC-3 [20] = assay: Antiproliferative activity against human PC3 cells after 72 hrs by MTT assay; type: functional, cell-based; details: PC-3, 72 h
[21] = target: MAP kinase-interacting serine/threonine-protein kinase 1 (Homo sapiens) (UniProt Q9BUB5); assay: Inhibition of MNK1 (unknown origin) at 1 uM after 40 mins by scintillation counting method relative to control
Chain of MAP kinase-interacting serine/threonine-protein kinase 1 (Homo sapiens) (Q9BUB5 whole entry, looked up): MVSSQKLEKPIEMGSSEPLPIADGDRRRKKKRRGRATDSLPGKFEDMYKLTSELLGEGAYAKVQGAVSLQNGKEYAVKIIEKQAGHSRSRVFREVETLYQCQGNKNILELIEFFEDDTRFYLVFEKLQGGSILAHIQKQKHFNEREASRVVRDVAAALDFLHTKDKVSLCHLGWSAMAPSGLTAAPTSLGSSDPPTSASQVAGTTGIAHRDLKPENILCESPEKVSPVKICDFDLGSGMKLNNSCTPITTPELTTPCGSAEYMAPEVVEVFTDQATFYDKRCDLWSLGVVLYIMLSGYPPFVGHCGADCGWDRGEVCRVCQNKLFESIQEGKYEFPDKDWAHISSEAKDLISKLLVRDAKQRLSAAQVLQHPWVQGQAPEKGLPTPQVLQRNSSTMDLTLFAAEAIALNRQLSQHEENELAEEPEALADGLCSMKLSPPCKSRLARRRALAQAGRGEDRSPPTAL

[22] = target: T3, Serine/threonine-protein kinase Chk1 (Homo sapiens) (UniProt O14757); assay: Inhibition of CHK1 (unknown origin) at 1 uM after 40 mins by scintillation counting method relative to control
T3 sequence (whole entry): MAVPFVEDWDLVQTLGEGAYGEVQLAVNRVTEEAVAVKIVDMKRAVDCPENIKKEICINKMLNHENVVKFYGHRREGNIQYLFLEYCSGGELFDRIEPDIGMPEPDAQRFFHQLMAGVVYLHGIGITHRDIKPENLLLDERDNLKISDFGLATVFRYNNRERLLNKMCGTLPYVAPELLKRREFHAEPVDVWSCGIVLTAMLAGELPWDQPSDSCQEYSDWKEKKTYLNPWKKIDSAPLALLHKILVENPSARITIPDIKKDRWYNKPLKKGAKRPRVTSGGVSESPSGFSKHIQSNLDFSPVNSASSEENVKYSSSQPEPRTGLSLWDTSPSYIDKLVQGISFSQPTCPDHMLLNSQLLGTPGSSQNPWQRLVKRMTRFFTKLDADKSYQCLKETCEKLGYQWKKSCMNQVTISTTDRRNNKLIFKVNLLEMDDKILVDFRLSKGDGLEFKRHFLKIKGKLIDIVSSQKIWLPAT

[23] = target: T1, RAC-alpha serine/threonine-protein kinase; assay: Inhibition of AKT in human PC3 cells assessed as reduction in GSK3beta phosphorylation at 1 to 10 uM after 4 hrs by Western blot analysis; type: cell-based
[24] = target: Ribosomal protein S6 kinase (Homo sapiens) (UniProt P51812+Q9UBS0+O75676+Q15349+O75582+P23443+Q9UK32+Q15418); assay: Inhibition of p70S6K (unknown origin) at 1 uM after 40 mins by scintillation counting method relative to control; type: protein assay
[25] = target: T1, RAC-alpha serine/threonine-protein kinase; assay: Inhibition of AKT phosphorylation in human PC3 cells at 1 to 10 uM after 4 hrs by Western blot analysis; type: cell-based

SMILES: O=C(N1CCN(c2ncnc3[nH]nc(Cl)c23)CC1)C1(c2ccc(Cl)c(Cl)c2)CCNCC1
- Activity (PC-3 [1]): 2.7%
- inhibition [2]: 94.3%
- inhibition [3]: inactive
- inhibition [4]: 64%
- Activity (PC-3 [5]): 88.11%
- inhibition [6]: inactive
- inhibition [7]: inactive
- inhibition [8]: 83.7%
- Activity (PC-3 [9]): 11.23%
- Activity (PC-3 [10]): 16.6%
- half-life (in vitro [11]): > 2.42 h
- CLint scaled (in vitro [12]): < 8.6 mL/min/kg
- microsomal CLint (in vitro [12]): < 9.6 µL/min/mg
- inhibition [13]: inactive
- Activity (PC-3 [14]): 68.92%
- inhibition [15]: 38%
- Activity (PC-3 [16]): 3.93%
- inhibition [17]: inactive
- inhibition (Homo sapiens): 99%
- Activity (PC-3 [18]): 6.2%
- inhibition [19]: inactive
- IC50 (PC-3 [20]): 3.7 µM
- inhibition [21]: 47%
- inhibition [22]: inactive
- inhibition [23]: inactive
- inhibition [24]: 99%
- inhibition [25]: Active
